Laboratory results published in US11744273B2, “Sweetness enhancing volatile compositions and methods of increasing perceived sweetness of a comestible” (University of Florida Research Foundation, Inc., priority 2016, dated 2023).

System: flavor intensity
Experiment: Tomato taste panel; association of compounds with tomato flavor intensity
Assay type: in vivo, human
Conditions: not given
Method: (§1) Fully ripe fruit were harvested, and used for taste panels. A random subset of fruit was used for biochemical analysis. Three biological replicates, each consisting of 2-20 fruit (depending on fruit size), were assayed for each variety. […] Panelists were between the ages of 18 and 78 with a median age of 22. […] An average of 85 (range of 66-95) of these panelists evaluated between 4-6 varieties in a session. All panelists went through a training session to familiarize them with the scaling and procedures. Tomatoes were sliced into wedges (or in halves for grape/cherry types) and each panelist was given two pieces for evaluation. Panelists took a bite of each sample, chewed and swallowed it, and rated overall liking and liking for texture. They then rated the perceived intensities of sweetness, sourness, saltiness, umami sensation, bitterness and overall tomato flavor. They were free to take as many bites as necessary to complete the assessments. They were instructed to take a bite of an unsalted cracker and a sip of water between samples. Samples were presented to the panelists in a randomized order. Hedonic ratings used the hedonic gLMS. This scale assesses the liking for tomatoes in the context of all pleasure/displeasure experiences: 0=neutral, −100=strongest disliking of any kind experienced, and +100=strongest liking of any kind experienced. Sensory intensity ratings used the gLMS (7,8,19). This scale assesses taste and flavor sensations in the context of all sensory experience (7): 0=no sensation, 100=strongest sensation of any kind experienced. Both scales were devised to provide valid comparisons across subjects.
(§2) The 68 chemical compounds measured in this experiment were initially divided into six groups based upon biochemical properties: sugars, branched chain amino acids, lipids, carotenoids, phenolics, and acids. A small number of compounds for which biosynthetic pathways are not established were assigned to one of the six classes based upon their correlations with other classified compounds. All pairwise correlations among the set of 68 compounds were calculated. Correlation coefficients were sorted using Modulated Modularity Clustering (MMC) (9) as a visual aid for identifying compounds that are closely related in this sample. Biochemical groups were examined for compounds within the group that were highly correlated and compounds that were upstream in the relevant metabolic pathways were preferentially selected.
(§3) All analyses were performed in SAS v 9.2.
Due to the large number of chemicals potentially influencing liking, a multivariate analysis of the data was performed. The attributes were initially partitioned into six groups based upon chemical properties and biosynthetic pathways: sugars, branched chain amino acids, fatty acids, carotenoids, phenolics, and acids. […] Groups of structurally related chemicals with known metabolic links were examined for compounds within each module that were highly colinear and compounds that were upstream in relevant metabolic pathways were preferentially selected.

Compound	association with flavor intensity after accounting for fructose
C=CC(=O)CCCCC [1-octen-3-one]	significant after accounting for fructose
CCC(C)C=O (stereo not drawn) [2-methylbuteraldehyde, 2-methylbutanal]	significant after accounting for fructose
CC(C)CCO [3-methyl-1-butanol]	significant after accounting for fructose
CC/C=C\CCO [cis-3-hexen-1-ol]	significant after accounting for fructose
O=C(O)CC(O)(CC(=O)O)C(=O)O [citric acid]	significant after accounting for fructose
CCC(C)OC(C)=O (stereo not drawn) [sec-butyl acetate]	significant after accounting for fructose
CCCCC/C=C/C=C/C=O [trans,trans-2,4-decadienal]	significant after accounting for fructose

Same assay, conditions: univariate models

Compound	association with flavor intensity
C=CC(=O)CCCCC [1-octen-3-one]	associated with flavor intensity
CCC(C)C=O (stereo not drawn) [2-methylbuteraldehyde, 2-methylbutanal]	associated with flavor intensity
CC(C)CCO [3-methyl-1-butanol]	associated with flavor intensity
c1ccc2scnc2c1 [benzothiazole]	associated with flavor intensity
CCCCOC(C)=O [butyl acetate]	associated with flavor intensity
CC/C=C\CCO [cis-3-hexen-1-ol]	associated with flavor intensity
O=C(O)CC(O)(CC(=O)O)C(=O)O [citric acid]	associated with flavor intensity
CCCCC/C=C/C=C/C=O [trans,trans-2,4-decadienal]	associated with flavor intensity

System: perceived sweetness
Experiment: Tomato taste panel; initial multiple regression of volatiles against perceived sweetness (Table 3)
Assay type: in vivo, human
Conditions: tomato
Method: as §1, §2, §3
In conducting the multiple regression analysis on the tomato data set, the independent variables were the sugar content (glucose+fructose), and the flavor (indicated by the retronasal perception of volatiles), while the dependent variable was the perceived sweetness.

Compound	association with sweetness after accounting for fructose
CCC(C)C=O (stereo not drawn) [2-methylbuteraldehyde, 2-methylbutanal]	significant after accounting for fructose
CC(C)CCO [3-methyl-1-butanol]	significant after accounting for fructose

Same assay, conditions: tomato volatiles; multiple regression, contribution to sweetness independent of the measures of sugar

Compound	t
CCCCC/C=C\CCC=O [cis-4-decenal]	0.582

Same assay, conditions: tomato; univariate models

Compound	association with sweetness
CCC(C)C=O (stereo not drawn) [2-methylbuteraldehyde, 2-methylbutanal]	showed evidence for association with sweetness
CC(C)CCO [3-methyl-1-butanol]	showed evidence for association with sweetness
CC1C=CC2C(C1)C2(C)C (stereo not drawn) [4-carene]	showed evidence for association with sweetness
CCCCOC(C)=O [butyl acetate]	showed evidence for association with sweetness
CC/C=C\CCO [cis-3-hexen-1-ol]	showed evidence for association with sweetness
C=CCc1ccc(O)c(OC)c1 [eugenol]	showed evidence for association with sweetness
COc1ccccc1O [guaiacol]	showed evidence for association with sweetness
CCCCCCC=O [heptaldehyde]	showed evidence for association with sweetness
O=CCc1ccccc1 [phenylacetaldehyde]	showed evidence for association with sweetness

System: perceived sweetness intensity
Experiment: Strawberry consumer panel; revised partial least squares regression against sweetness intensity (Table 6)
Assay type: in vivo, human
Conditions: in vivo
Method: (§4) All consumer panels were approved by the University of Florida Institutional Review Board. […] Ages of panelist ranged from 18 to 71, with a median age of 24. Panelists self-classified themselves as 98 White or Caucasian, 11 Black or African-American, 1 Native American, Alaska Native or Aleutian, 41 Asian/Pacific Islander, and 15 Other. […] Fresh, fully-ripe strawberry fruit was removed from overnight 4° C. dark storage and allowed to warm to room temperature prior to sensory analysis. Each panelist was given one to two whole strawberries for evaluation, depending on cultivar availability. Panelist took a bite of each sample, chewed, and swallowed it. Ratings for overall liking and liking for texture were scaled on hedonic general labeled magnitude scale (gLMS) in the context of all pleasure/displeasure experiences. […] Scales were employed to mediate valid comparisons across subjects and sessions.
For the second analysis, partial least squares regression analysis was used to identify more correlations to sweetness independent of sugars.

Compound	t Ratio (Fructose)	t Ratio (Glucose)	t Ratio (Sucrose)
CCCCCCCCOC(=O)C(C)CC (stereo not drawn) [Octyl 2-methyl butyrate]	0.015	−0.099	0.357

Same assay, conditions: strawberry volatile concentration regressed against perceived sweetness intensity independent of fructose; partial least squares regression

Compound	t Ratio (Fructose)
CCCCCC=CC=O [2-Octenal]	−0.171
C=C[C@]1(C)CC[C@H](C(C)(C)O)O1 [(Z)-Linalool oxide]	1.868
CC1(C)[C@H]2CC=C(C=O)[C@@H]1C2 [Myrtenal]	2.588
C=C(C)C1CC=C(COC(C)=O)CC1 (stereo not drawn) [Perillyl acetate]	0.231
CCCCCCC1CCC(=O)O1 (stereo not drawn) [γ-Decalactone]	1.246
Methyl thiolacetate	0.476

Same assay, conditions: strawberry volatile concentration regressed against perceived sweetness intensity independent of glucose; partial least squares regression

Compound	t Ratio (Glucose)
CCCCCC=CC=O [2-Octenal]	0.292
C=C[C@]1(C)CC[C@H](C(C)(C)O)O1 [(Z)-Linalool oxide]	1.561
CC1(C)[C@H]2CC=C(C=O)[C@@H]1C2 [Myrtenal]	2.455
C=C(C)C1CC=C(COC(C)=O)CC1 (stereo not drawn) [Perillyl acetate]	0.193
CCCCCCC1CCC(=O)O1 (stereo not drawn) [γ-Decalactone]	0.88
Methyl thiolacetate	0.416

Same assay, conditions: strawberry volatile concentration regressed against perceived sweetness intensity independent of sucrose; partial least squares regression

Compound	t Ratio (Sucrose)
CCCCCC=CC=O [2-Octenal]	2.052
C=C[C@]1(C)CC[C@H](C(C)(C)O)O1 [(Z)-Linalool oxide]	1.954
CC1(C)[C@H]2CC=C(C=O)[C@@H]1C2 [Myrtenal]	−1.323
C=C(C)C1CC=C(COC(C)=O)CC1 (stereo not drawn) [Perillyl acetate]	0.927
CCCCCCC1CCC(=O)O1 (stereo not drawn) [γ-Decalactone]	1.650
Methyl thiolacetate	1.037

System: perceived sweetness intensity
Experiment: Strawberry consumer panel; initial multiple regression of volatiles against perceived sweetness intensity independent of glucose, fructose or sucrose (Table 5)
Assay type: in vivo, human
Conditions: initial step-wise multiple regression
Method: Step-wise multiple regressions of all volatile compounds against perceived intensity of sweetness is performed independent of either glucose, fructose, or sucrose concentration, separately (Table 5).
At least 100 grams or seven berries of each sample were removed from 4° C. dark overnight storage prior to volatile collection. Samples were homogenized in a blender prior to splitting into three 15 gram replicates for immediate capturing of volatile emission and remainder of sample frozen in N2 (I) and stored at −80° C. for later sugar and acid quantification.
Oven temperatures programmed from 40° C. (0.5 min hold) at 5° C. min^−1 to 250° C. (4 min hold). Signals captured with a flame ionization detector (FID) at 280° C. Peaks from FID signal were integrated manually with Chemstation B.04.01 software (Agilent Technologies, Santa Clara, Calif.). Volatile emission (ng gFW^−1 h^−1) calculated based on individual peak area relative to sample elution standard peak area.
as §4
For the first analysis, individual volatile compound concentrations were regressed using the “enter” method in SPSS Statistics (IBM Corp, Armonk, N.Y., USA).

Compound	relation to sweetness intensity independent of sugars
CCCC(=O)OC(C)CCC (stereo not drawn) [60415-61-4, 2-pentanyl butyrate]	enhance sweetness intensity
CCCCCCOC(C)=O [hexyl acetate]	enhance sweetness intensity
CC(=O)OCC=C(C)C [prenyl acetate, 3-methyl-2-buten-1-yl acetate]	negatively related to sweetness

Same assay, conditions: standard least squares, sweetness intensity independent of fructose

Compound	FRUCTOSE t RATIO
C=C[C@]1(C)CC[C@H](C(C)(C)O)O1 [5989-33-3]	1.869
CCOC(=O)C(C)CC (stereo not drawn) [7452-79-1]	1.959
CCCCCCCCOC(=O)CC(C)C [7786-58-5]	0.362
CCCCCCCCCOC(=O)C(C)C [10522-34-6]	0.536
C=C(C)C1CC=C(COC(C)=O)CC1 (stereo not drawn) [15111-96-3]	0.23
CCCCC/C=C\C=O [20664-46-4]	−0.17
CCC(O)C(=O)OC (stereo not drawn) [29674-47-3]	1.339
CCCCCCCCOC(=O)C(C)CC (stereo not drawn) [29811-50-5]	0.016
C=CC(C)(O)CC/C=C(\C)CCC=C(C)C (stereo not drawn) [40716-66-3]	1.521
CC=C(C)C(=O)OCC [55514-48-2]	−0.644

Same assay, conditions: standard least squares, sweetness intensity independent of glucose

Compound	GLUCOSE t RATIO
C=C[C@]1(C)CC[C@H](C(C)(C)O)O1 [5989-33-3]	1.561
CCOC(=O)C(C)CC (stereo not drawn) [7452-79-1]	1.993
CCCCCCCCOC(=O)CC(C)C [7786-58-5]	0.227
CCCCCCCCCOC(=O)C(C)C [10522-34-6]	0.288
C=C(C)C1CC=C(COC(C)=O)CC1 (stereo not drawn) [15111-96-3]	0.192
CCCCC/C=C\C=O [20664-46-4]	−0.395
CCC(O)C(=O)OC (stereo not drawn) [29674-47-3]	1.362
CCCCCCCCOC(=O)C(C)CC (stereo not drawn) [29811-50-5]	−0.098
C=CC(C)(O)CC/C=C(\C)CCC=C(C)C (stereo not drawn) [40716-66-3]	1.202
CC=C(C)C(=O)OCC [55514-48-2]	−0.675

Same assay, conditions: standard least squares, sweetness intensity independent of sucrose

Compound	SUCROSE t RATIO
C=C[C@]1(C)CC[C@H](C(C)(C)O)O1 [5989-33-3]	1.953
CCOC(=O)C(C)CC (stereo not drawn) [7452-79-1]	−0.785
CCCCCCCCOC(=O)CC(C)C [7786-58-5]	2.027
CCCCCCCCCOC(=O)C(C)C [10522-34-6]	2.049
C=C(C)C1CC=C(COC(C)=O)CC1 (stereo not drawn) [15111-96-3]	0.927
CCCCC/C=C\C=O [20664-46-4]	1.383
CCC(O)C(=O)OC (stereo not drawn) [29674-47-3]	0.035
CCCCCCCCOC(=O)C(C)CC (stereo not drawn) [29811-50-5]	0.358
C=CC(C)(O)CC/C=C(\C)CCC=C(C)C (stereo not drawn) [40716-66-3]	1
CC=C(C)C(=O)OCC [55514-48-2]	−0.889
